Test [1] deals with T1, Adenosine receptor A2a (Homo sapiens, UniProt P29274). Put plainly: Binding affinity to human wild type adenosine A2A receptor expressed in Expi293F cells assessed as dissociation constant by surface plasmon resonance assay.
A further test concerns the target T2, Adenosine receptor A1 (Homo sapiens, UniProt P30542).
T2 sequence (P30542 whole entry): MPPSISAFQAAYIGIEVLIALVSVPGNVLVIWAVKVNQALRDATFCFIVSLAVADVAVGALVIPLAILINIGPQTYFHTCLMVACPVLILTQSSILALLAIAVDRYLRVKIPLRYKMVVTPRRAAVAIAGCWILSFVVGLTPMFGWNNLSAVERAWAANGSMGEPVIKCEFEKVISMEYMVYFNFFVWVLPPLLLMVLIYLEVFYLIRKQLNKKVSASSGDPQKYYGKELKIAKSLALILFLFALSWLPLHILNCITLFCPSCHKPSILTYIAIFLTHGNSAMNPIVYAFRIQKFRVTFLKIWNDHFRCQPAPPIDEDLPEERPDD
The test can be described thus: Binding affinity to human wild type adenosine A1 receptor expressed in Expi293F cells assessed as dissociation constant by surface plasmon resonance assay.

For a further test, the target named is T3, Adenosine receptor A2b (Homo sapiens, UniProt P29275).
T3 sequence (P29275 whole entry): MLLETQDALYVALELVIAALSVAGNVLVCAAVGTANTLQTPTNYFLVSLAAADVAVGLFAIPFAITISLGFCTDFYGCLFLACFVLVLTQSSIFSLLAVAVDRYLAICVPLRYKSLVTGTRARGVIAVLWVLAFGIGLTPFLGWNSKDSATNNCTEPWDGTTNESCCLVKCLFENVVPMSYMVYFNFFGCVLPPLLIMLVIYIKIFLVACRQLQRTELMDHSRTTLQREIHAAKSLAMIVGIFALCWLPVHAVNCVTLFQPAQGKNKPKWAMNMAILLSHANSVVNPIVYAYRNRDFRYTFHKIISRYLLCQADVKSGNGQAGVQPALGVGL
The test can be described thus: Binding affinity to human wild type adenosine A2B receptor expressed in Expi293F cells assessed as dissociation constant by surface plasmon resonance assay.

In another test the target is T4, Adenosine receptor A3 (Homo sapiens, UniProt P0DMS8).
T4 sequence (P0DMS8 whole entry): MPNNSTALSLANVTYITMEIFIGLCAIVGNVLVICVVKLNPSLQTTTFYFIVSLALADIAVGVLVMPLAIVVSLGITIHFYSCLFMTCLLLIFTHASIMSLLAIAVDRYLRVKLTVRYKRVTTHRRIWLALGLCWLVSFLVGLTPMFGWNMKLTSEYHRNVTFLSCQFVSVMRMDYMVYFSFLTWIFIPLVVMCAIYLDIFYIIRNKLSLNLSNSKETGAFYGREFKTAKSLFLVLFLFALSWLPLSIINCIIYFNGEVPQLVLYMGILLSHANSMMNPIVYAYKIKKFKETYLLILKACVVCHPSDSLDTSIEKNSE
Put plainly: Binding affinity to human wild type adenosine A3 receptor expressed in Expi293F cells assessed as dissociation constant by surface plasmon resonance assay.

In test [2] the target is T1, Adenosine receptor A2a. The test can be described thus: Antagonist activity at human adenosine A2A receptor expressed in HEK293T cells assessed as inhibition of NECA-induced Gs short protein activation by TRUPATH assay. Format: functional, cell-based.

T1 sequence (P29274 whole entry): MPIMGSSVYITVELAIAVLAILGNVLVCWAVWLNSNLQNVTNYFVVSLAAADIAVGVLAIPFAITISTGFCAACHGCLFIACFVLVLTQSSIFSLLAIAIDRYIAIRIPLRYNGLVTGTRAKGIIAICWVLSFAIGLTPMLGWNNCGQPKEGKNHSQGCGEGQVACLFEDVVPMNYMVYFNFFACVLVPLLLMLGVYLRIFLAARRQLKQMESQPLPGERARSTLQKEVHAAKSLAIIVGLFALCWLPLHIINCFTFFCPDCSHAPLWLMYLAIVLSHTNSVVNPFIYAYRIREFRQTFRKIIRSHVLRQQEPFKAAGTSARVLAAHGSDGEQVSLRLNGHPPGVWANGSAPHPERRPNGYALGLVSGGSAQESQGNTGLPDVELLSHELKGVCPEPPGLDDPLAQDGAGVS

As for `O=C(Nc1ccc2ccccc2n1)c1ccco1`, the Kd stood at 40 µM at Adenosine receptor A2a [1], 59 µM on Adenosine receptor A1, 123 µM at Adenosine receptor A2b and 56 µM at Adenosine receptor A3. The IC50 at Adenosine receptor A2a [2] is 0.166 µM.

For the origin of these results see ChEMBL document CHEMBL5126601 (ACS Med Chem Lett, 2022).
